Measured values published in paper PMC4672894, “Bromodomain Proteins Contribute to Maintenance of Bloodstream Form Stage Identity in the African Trypanosome” (PLoS Biology, 2015).

Assays:
Assay in all cases: isothermal titration calorimetry
Type in all cases: binding
[1] = biological target: T1, Bdf2 bromodomain (Bdf2^9-123) (Trypanosoma brucei, UniProt Q38AM1); conditions: 15°C, pH 7.5, 20 mM Hepes, 150 mM NaCl, 0.5 mM TCEP, 1% DMSO
T1 construct: gene Tb10.6k15.3240; bromodomain, residues 9-123, amplified from genomic DNA, pET28a with N-terminal PreScission-cleavable His6 tag, E. coli; crystal model residues 9-114
T1 sequence (Q38AM1 9-123): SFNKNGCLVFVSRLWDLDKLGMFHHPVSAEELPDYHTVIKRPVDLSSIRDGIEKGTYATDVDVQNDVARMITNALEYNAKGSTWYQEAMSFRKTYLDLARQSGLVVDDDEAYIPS

[2] = biological target: T2, Bdf3 bromodomain (Bdf3^32-150) (Trypanosoma brucei, UniProt Q383S2); conditions: 15°C, pH 7.5, 20 mM Hepes, 150 mM NaCl, 0.5 mM TCEP, 1% DMSO
T2 construct: gene Tb11.01.1830; bromodomain, residues 32-150, amplified from genomic DNA, pET28a with N-terminal PreScission-cleavable His6 tag, E. coli; strain-construction section prints a conflicting locus Tb427.01.1830
T2 sequence (Q383S2 32-150): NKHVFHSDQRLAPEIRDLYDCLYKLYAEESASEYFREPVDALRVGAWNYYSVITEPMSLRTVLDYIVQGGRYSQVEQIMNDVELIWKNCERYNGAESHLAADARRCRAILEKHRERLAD

[3] = biological target: T1, Bdf2 bromodomain (Bdf2^9-123)
Text: isothermal titration calorimetry on Bdf2 bromodomain (Bdf2^9-123) | confirmed direct and specific binding of I-BET151 to their AcK recognition sites

[4] = biological target: T2, Bdf3 bromodomain (Bdf3^32-150)
Text: isothermal titration calorimetry on Bdf3 bromodomain (Bdf3^32-150) | confirmed direct and specific binding of I-BET151 to their AcK recognition sites

Structure (SMILES) | no binding detected [1] | no binding detected [2] | Kd [3] [µM] | Kd [4] [µM]
Cc1sc2c(c1C)C(c1ccc(Cl)cc1)=N[C@@H](CC(=O)OC(C)(C)C)c1nnc(C)n1-2 [JQ1] | we could not detect binding of another well characterized bromodomain inhibitor, JQ1 | we could not detect binding of another well characterized bromodomain inhibitor, JQ1 | – | –
COc1cc2c(cc1-c1c(C)noc1C)ncc1[nH]c(=O)n([C@H](C)c3ccccn3)c12 [I-BET151] | – | – | 225 ± 5 | 175 ± 10
